Columns and labels:
[1] = tested on: vesicular release from mKC; test: Vesicular release from cultured mouse keratinocytes (AChE activity); assay type: cell-based; conditions: 10 μM
Procedure: Vesicular release from cultured keratinocytes was quantified by detecting acetylcholinesterase (AChE) activity in the extracellular release fluid. (Gupta et al. Am. J. Physiol. Heart Circ. Physiol. 2007, 292, H3052-3056; Malik et al. Methods Mol. Biol. 2016, 1448, 237-248). CBQCA Protein Quantitation Kit (Molecular Probes, Eugene, OR) was used to assess the total protein amounts of each sample. Quantitation was carried out according to kit instructions (Fluorocet, Systems Biosciences, Palo Alto, CA). Briefly, vesicles were lysed to release esterase enzyme whose activity is measured using a florescence dye, excitation at 544 nm and emission at 590 nm. Fluostar Optima (BMG Labtech, Cary, NC) microplate reader was used to measure esterase activity. 500 ng protein equivalent of input was used per well. To determine the contribution of Rab5a and Rab27a to LPC-induced miR-146a release, cells were pre-treated with the Rab5a (5′-GUAGAAUCAA GUUUCUAAUUCUGAA-3′ SEQ ID NO: 9, 5′-[…]-3′ SEQ ID NO: 10) or Rab27a (5′-AGCUAAAA CUGAGAGCUUCAAACAG-3′ SEQ ID NO: 11, 5′-[…]-3′ SEQ ID NO: 12) siRNA (IDT, Coralville, IA) for 72 h before stimulation. Control cells were treated with scramble siRNA.

hTRPV4-R746G = target: T1, hTRPV4-R746G (Homo sapiens, UniProt Q9HBA0, R746G); test: Inside-out patch-clamp, hTRPV4-R746G; assay type: biochemical; conditions: 5 μM LPC 18:1
T1 construct: expressed in transfected cells; host or cells: HEK293
T1 sequence (Q9HBA0 whole entry R746G): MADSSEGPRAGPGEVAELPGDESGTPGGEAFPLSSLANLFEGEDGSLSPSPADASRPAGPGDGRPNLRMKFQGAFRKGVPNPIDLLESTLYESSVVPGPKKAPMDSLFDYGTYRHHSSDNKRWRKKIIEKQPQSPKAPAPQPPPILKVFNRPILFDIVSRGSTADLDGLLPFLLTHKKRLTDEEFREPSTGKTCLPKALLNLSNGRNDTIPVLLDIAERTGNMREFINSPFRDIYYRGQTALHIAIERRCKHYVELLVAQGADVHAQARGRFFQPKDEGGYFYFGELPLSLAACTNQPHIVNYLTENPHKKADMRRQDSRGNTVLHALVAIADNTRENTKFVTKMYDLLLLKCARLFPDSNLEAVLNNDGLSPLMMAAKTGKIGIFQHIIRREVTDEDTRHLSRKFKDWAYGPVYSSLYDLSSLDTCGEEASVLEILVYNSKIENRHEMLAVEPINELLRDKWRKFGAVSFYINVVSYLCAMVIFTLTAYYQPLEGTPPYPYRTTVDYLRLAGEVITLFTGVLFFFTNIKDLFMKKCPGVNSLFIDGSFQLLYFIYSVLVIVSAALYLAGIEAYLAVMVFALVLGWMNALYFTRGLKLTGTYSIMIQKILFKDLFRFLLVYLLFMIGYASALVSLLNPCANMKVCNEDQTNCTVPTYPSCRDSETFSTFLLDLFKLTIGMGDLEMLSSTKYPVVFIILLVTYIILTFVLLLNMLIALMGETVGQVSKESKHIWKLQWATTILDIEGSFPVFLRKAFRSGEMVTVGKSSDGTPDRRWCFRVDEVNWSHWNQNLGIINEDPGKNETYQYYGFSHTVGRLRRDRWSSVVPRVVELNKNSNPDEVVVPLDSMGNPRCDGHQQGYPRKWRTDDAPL
Procedure: (§1) Cell culture and transfection. HEK293 cells (ATCC® CRL-1573) were cultured on poly-D-lysine coated coverslips in 24-well plate containing DMEM media with high-Glucose (Gibco, Gaithersburg, MD) supplemented with 10% fetal bovine serum (FBS, HyClone Laboratories, Logan, UT) and 100 U/mL of penicillin/streptomycin (Gibco, Gaithersburg, MD). Cell cultures were maintained with 5% of CO2 in a humidified incubator at 37° C. HEK cells were transfected with rat or human wild type or mutant TRPV4 channels with EGFP or YFP coupled to their C-termini (1.5 μg of plasmid for excised patch clamp and Ca^2+ imaging and 200 ng for single-channel experiments). […]
(§2) Electrophysiology. Currents were recorded using the inside-out configuration of the patch-clamp technique (Hamill et al. Pflugers Arch. 1981, 391, 85-100). […] Mean current values in response to GSK1016790A or LPC 18:1 were measured after channel activation had reached the steady-state (˜3 min). […] Currents were low-pass filtered at 2 kHz and sampled at 10 kHz with an EPC 10 amplifier (HEKA Elektronik) and were plotted and analyzed with Igor Pro (Wavemetrics Inc.).

hTRPV4-121AAWAA125 = target: T2, hTRPV4-121AAWAA125 (Homo sapiens, UniProt Q9HBA0, K121A/K125A/R122A/R124A); test: Inside-out patch-clamp, hTRPV4-121AAWAA125; assay type: biochemical; conditions: 5 μM LPC 18:1
T2 construct: expressed in transfected cells; host or cells: HEK293
T2 sequence (Q9HBA0 whole entry K121A/R122A/R124A/K125A): as the sequence (Q9HBA0 whole entry R746G) above, with K121A, R122A, R124A, K125A, G746R counted along it
Procedure: as §1, §2

hTRPV4-R746C = target: T3, hTRPV4-R746C (Homo sapiens, UniProt Q9HBA0, R746C); test: Inside-out patch-clamp, hTRPV4-R746C; assay type: biochemical; conditions: 5 μM LPC 18:1
T3 construct: expressed in transfected cells; host or cells: HEK293
T3 sequence (Q9HBA0 whole entry R746C): as the sequence (Q9HBA0 whole entry R746G) above, with G746C counted along it
Procedure: as §1, §2

rTRPV4-R746D = rTRPV4-R746D (Rattus norvegicus, UniProt Q9ERZ8, R746D); test: Inside-out patch-clamp, HEK cells transfected with rTRPV4-R746D; assay type: biochemical; set-up: expressed in transfected cells; host or cells: HEK293; conditions: 5 μM LPC 18:1
Sequence of rTRPV4-R746D (Q9ERZ8 whole entry R746D): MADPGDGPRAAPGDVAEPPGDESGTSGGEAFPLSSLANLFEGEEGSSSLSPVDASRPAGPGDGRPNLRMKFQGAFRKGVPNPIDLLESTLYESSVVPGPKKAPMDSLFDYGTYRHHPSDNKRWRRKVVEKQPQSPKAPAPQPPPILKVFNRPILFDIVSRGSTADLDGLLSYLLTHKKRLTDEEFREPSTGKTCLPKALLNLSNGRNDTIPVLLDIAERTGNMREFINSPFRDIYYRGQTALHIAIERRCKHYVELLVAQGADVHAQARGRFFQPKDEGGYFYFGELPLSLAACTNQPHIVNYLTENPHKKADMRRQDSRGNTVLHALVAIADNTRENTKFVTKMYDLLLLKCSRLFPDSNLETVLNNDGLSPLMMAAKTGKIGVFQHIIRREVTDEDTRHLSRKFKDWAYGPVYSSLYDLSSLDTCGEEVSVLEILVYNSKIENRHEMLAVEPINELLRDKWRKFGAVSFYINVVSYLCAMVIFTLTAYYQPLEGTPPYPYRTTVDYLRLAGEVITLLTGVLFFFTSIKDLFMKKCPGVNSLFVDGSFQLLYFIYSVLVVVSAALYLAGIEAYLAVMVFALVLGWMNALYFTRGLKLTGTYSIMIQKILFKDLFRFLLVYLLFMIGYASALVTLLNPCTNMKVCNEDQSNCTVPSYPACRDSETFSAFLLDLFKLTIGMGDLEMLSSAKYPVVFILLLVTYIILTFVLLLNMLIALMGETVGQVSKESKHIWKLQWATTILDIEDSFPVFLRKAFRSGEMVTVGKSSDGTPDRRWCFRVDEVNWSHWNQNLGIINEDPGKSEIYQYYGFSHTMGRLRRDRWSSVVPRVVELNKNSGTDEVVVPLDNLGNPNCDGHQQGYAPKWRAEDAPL
Procedure: as §1, §2

Row | Compound | effect of U0126 on LPC-induced vesicular release [1] | average activation of currents, normalized to 1 μM GSK101 (hTRPV4-R746G) | average activation of currents, normalized to 1 μM GSK101 (hTRPV4-121AAWAA125) | average activation of currents, normalized to 1 μM GSK101 (hTRPV4-R746C) | average activation of currents, normalized to 1 μM GSK101 (rTRPV4-R746D)
1 | N#CC(=C(/N)Sc1ccccc1N)/C(C#N)=C(\N)Sc1ccccc1N [U0126] | completely eliminated | – | – | – | –
2 | LPC 18:1 | – | 13±4% | 43±4% | 11±4% | 15±3%
